Series [1] addresses RSK4 (Homo sapiens (Human), UniProt Q9UK32). The series can be described thus: Radioisotope kinase assay (SignalChem), RSK4. The class given is biochemical. On the procedure:
(§1) Radioisotope assays (SignalChem) were performed for the evaluation of the kinase target profiling and all assays were performed in a designated radioactive working area. The kinase targets were RSK1, RSK2, RSK3, RSK4 and MK2. The kinase assays (in duplicate) were performed at 30° C. for 15 minutes in a final volume of 25 μL according to the following assay reaction recipe: • Component 1: 5 μL of diluted active kinase target (100 ng per reaction) • Component 2: 5 μL of peptide substrate (0.5 μg per reaction) (for RSK1, RSK2, RSK3 and RSK4, RSK S6K substrate was used; for MK2, HSP27tide was used) • Component 3: 5 μL of kinase assay buffer • Component 4: 5 μL of compound described herein (various concentrations: 0, 0.1, 1, 10, 100 or 1000 nM or 1, 3, 10, 30, 100, 300 nM) • Component 5: 5 μL of ^33P-ATP (5 μM stock solution, 0.8 μCi; […])
(§2) The assay was initiated by the addition of ^33P-ATP and the reaction mixture incubated at 30° C. for 15 minutes. […] The radioactivity on the P81 plate was counted in the presence of scintillation fluid in a Trilux scintillation counter.
(§3) Blank controls were set up for each target kinase which included all the assay components except the addition of the appropriate substrate (which was replaced with equal volume of assay dilution buffer). The corrected activity for each target kinase was determined by removing the blank control value.

For series [2], the target named is RSK1 (Homo sapiens (Human), UniProt Q15418). As to the kind of experiment: Radioisotope kinase assay (SignalChem), RSK1. The class given is biochemical. On the procedure: as §1, §2, §3
Chain of RSK1 (Q15418 whole entry): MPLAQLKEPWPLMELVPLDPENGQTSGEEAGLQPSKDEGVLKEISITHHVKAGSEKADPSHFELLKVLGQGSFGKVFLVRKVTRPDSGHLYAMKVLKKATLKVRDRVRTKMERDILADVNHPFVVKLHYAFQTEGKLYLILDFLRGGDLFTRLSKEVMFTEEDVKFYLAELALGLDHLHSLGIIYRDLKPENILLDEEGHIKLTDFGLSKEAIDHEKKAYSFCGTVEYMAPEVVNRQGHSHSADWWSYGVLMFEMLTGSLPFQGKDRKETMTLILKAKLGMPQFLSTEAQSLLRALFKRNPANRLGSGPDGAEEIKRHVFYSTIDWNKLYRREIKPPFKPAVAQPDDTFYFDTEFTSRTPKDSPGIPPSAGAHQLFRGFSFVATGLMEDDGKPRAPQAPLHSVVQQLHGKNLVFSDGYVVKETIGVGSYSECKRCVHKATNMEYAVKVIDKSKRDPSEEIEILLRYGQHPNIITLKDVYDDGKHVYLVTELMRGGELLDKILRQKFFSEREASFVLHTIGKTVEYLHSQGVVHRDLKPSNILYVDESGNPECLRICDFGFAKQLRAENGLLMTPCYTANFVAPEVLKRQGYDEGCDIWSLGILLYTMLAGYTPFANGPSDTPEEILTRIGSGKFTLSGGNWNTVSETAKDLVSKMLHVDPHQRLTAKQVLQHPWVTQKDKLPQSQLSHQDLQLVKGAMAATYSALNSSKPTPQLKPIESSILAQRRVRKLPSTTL
The test system of series [3] is HLA-DRA mRNA. As to the kind of experiment: Immuno-oncology: HLA-DRA mRNA expression. The class given is cell-based, Human. As to conditions: MDA-MB-231 and JIMT-1 cells; Compound 16 2 or 4 uM, Compound 18 1, 2, or 4 uM. The source says: (§4) A key feature of cancer is low immunogenicity. This can occur by several mechanisms that allow the cells to escape immune recognition. […] HLA-DRA is a member of MHC-II genes and CIITA is the master regulator of MHC II transcription. Thus it was surprising that CIITA, which would be expected to regulate MHC II gene expression, was not altered by RSK inhibition. […] HLA-DRA is important for immune recognition while PD-L1 is involved in immune checkpoints.

Series [4] has as its system CIITA mRNA. As to the kind of experiment: Immuno-oncology: CIITA mRNA expression. The format is cell-based, Human. The following applies: MDA-MB-231 and JIMT-1 cells; Compound 16 2 or 4 uM, Compound 18 1, 2, or 4 uM.
Text: as §4

Series [5] relates to phosphorylated Y-box binding protein-1 (YB-1) at serine 102 (P—YB-1S102). As to the kind of experiment: Immunoblotting of phosphorylated YB-1 in MDA-MB-231 cells. A general note: Immunoblotting shows a protein as a band on a membrane.
Procedure: Following desired experimental conditions, breast cancer cell lines grown and treated in 6 well plates or 100 mm culture dishes (Grenier Bio-One) were placed on ice and the supernatant from each well was removed and the cells were washed in cold PBS. Following removal of PBS, cells were exposed to radioimmunoprecipitation assay (RIPA) buffer (50 mM Tris-HCl (pH 8), 150 mM NaCl, 1% NP-40, 0.5% sodium deoxycholate, 0.1% SDS; Fisher Scientific) supplemented with 1% phosphatase inhibitor (Fisher Scientific) and 1% protease inhibitor (Fisher Scientific) for 10 minutes. Samples were transferred to eppendorf tubes, vortexed and then centrifuged at 14 000 rpm for 10 minutes. Supernatants were collected as whole cell lysates. For mouse tumour tissues, each sample was place in a 35 mm culture dish with complete RIPA lysis buffer. The samples were diced in the buffer on ice with a sterile scalpel (VWR) and the buffer and tissue were transferred to an eppendorf tube. The samples were left on ice for 10 minutes with periodic vortexing every 2 to 3 minutes. The samples were then transferred to a Qiashredder (Qiagen) and centrifuged at 14 000 rpm for 2 minutes. The flow through was transferred to a new eppendorf tube and the samples were centrifuged again at 14 000 rpm for 5 minutes. Supernatants were collected as whole cell lysates.
For the majority of experiments in this study, 30 μg of protein per well was loaded. Samples were then resolved on SDS-PAGE (polyacrylamide gel electrophoresis) using various percentages of acrylamide gels (8%-12%), depending on the proteins of interest. […] For certain immunoblots, bands of proteins of interest were scanned and band intensity ratios were determined by densitometric analysis (ImageJ). […] To assess whether cells are actively undergoing cell death, the activity of poly ADP ribose polymerase (PARP) (1:1000 CST) was also measured using the immunoblotting method.
Series [6] addresses RSK3 (Homo sapiens (Human), UniProt Q15349). As to the kind of experiment: Radioisotope kinase assay (SignalChem), RSK3. The class given is biochemical. On the procedure:
as §1, §2, §3

Series [7] can be described thus: Solubility assessment at 20 mg/ml. The format is physicochemical. The following applies: for 20 mg/ml Solubility: dissolved in DMSO, diluted in DMEM. On the procedure: Solubility is an important property for therapeutic drug candidates. Poor solubility can lead to low bioavailability resulting in suboptimal drug delivery. It can also prevent the evaluation of test agents in animals because the concentration(s) needed to achieve the desired effect cannot be achieved to poor solubility. For solubility assessments, small molecules targeting RSK were compared. For these assessments, 100 mM solutions of the compounds dissolved in DMSO were diluted in DMEM growth media (Life Technologies) supplemented with fetal bovine serum (FBS, Life Technologies) and 100 units/ml penicillin and 100 units/ml streptomycin (Life Technologies) to make 20 mg/ml solutions. Once diluted, the solutions were vortexed and examined for the formation of precipitates. […] For Compound 26, a 100 mM solution of the compound dissolved in DMSO was diluted in phosphate buffered saline (Life Technologies) to make a 20 mg/ml solution. The stock of […] was chosen because this is the upper end of what would be required to dose mice for a range of studies including MTD, PK, PD and efficacy. The pH of this solution was determined to be 2, as previously described. […] At high concentrations some RSK inhibitors were highly soluble while others were not. Compound 0 is (R)—N-(1-benzyl-1H-pyrazol-4-yl)-9-methyl-6-oxo-6,7,8,9-tetrahydropyrido[3′,2′:4,5]pyrrolo[1,2-a]pyrazine-2-carboxamide. Compound 0 was not soluble, whereas Compounds 18, 20, 21, 25 and 26 were soluble under the same conditions (Table 5).

Series [8] relates to CD274, the gene that encodes PD-L1. As to the kind of experiment: Immuno-oncology: CD274 expression in JIMT-1 cells. The class given is cell-based, Human. The following applies: 1-20 uM.
Text: as §4

The target of series [9] is RSK2 (Homo sapiens (Human), UniProt P51812). The series can be described thus: Radioisotope kinase assay (SignalChem), RSK2. The format is biochemical. On the procedure:
The assay conditions for the RSK2 kinase target were optimized to yield acceptable enzymatic activity. In addition, the assays were optimized to give high signal-to-noise ratio.
Radioisotope assays (SignalChem) were performed for the evaluation of the kinase target profiling and all assays were performed in a designated radioactive working area. The kinase targets were RSK1, RSK2, RSK3, RSK4 and MK2.
The assay was initiated by the addition of ^33P-ATP and the reaction mixture incubated at 30° C. for 15 minutes. After the incubation period, the assay was terminated by spotting 10 μL of the reaction mixture onto Multiscreen phosphocellulose P81 plate. The Multiscreen phosphocellulose P81 plate was washed 3 times for approximately 15 minutes each in a 1% phosphoric acid solution. The radioactivity on the P81 plate was counted in the presence of scintillation fluid in a Trilux scintillation counter.
as §3

Series [10] relates to CD274, the gene that encodes PD-L1. The series can be described thus: Immuno-oncology: CD274 expression in MDA-MB-231 cells. The format is cell-based, Human. The following applies: Compound 16 2 or 4 uM, Compound 18 1, 2 or 4 uM.
Text: as §4

Series [11] deals with All cell lines of Tables 6A and 6B. As to the kind of experiment: Monolayer growth inhibition, Alamar blue, range over all cell lines. As to conditions: 120 h, read-out: IC50 Values - Alamar Blue (5 Days), Range. The class given is cell-based. On the technique in general: Alamar Blue is a resazurin reagent that responds to reducing activity.
Procedure: 1×10^3 cells per well were seeded for a final volume of 200 μl per well and plates were incubated for 5 days at 37° C. in a humidified incubator with 5% CO2. Following the incubation period, cell survival was quantified by Alamar blue assay (Life Technologies). Briefly, media from each well was replaced with 100 μl of phosphate buffer saline (PBS, Life Technologies) and cells were incubated with 5% Alamar blue, which incorporates a propriety redox indicator that changes colour in response to metabolic activity, for up to 2 hours. During this period of incubation, the absorbance at 570 nm and 600 nm was measured at various time points, depending on the cell line or sample. Percent survival was calculated by comparing the absorbance ratio of the test well to the control well multiplied by 100%, as indicated in the following formula:
Series [12] concerns All cell lines of Tables 7A and 7B. As to the kind of experiment: Monolayer growth inhibition, crystal violet, range over all cell lines. As to conditions: 120 h, read-out: IC50 Values - Crystal Violet (5 Days), Range. The format is cell-based.
A short description of series [13]: Colony forming unit hematopoietic stem cell assay. The format is cell-based, human. The following applies: human, CD34+ cells from human cord blood or peripheral blood; at 3.8 uM; read-out: cells viable in the HSC assay. On the procedure: The hematopoietic colony forming cell assay was conducted based on a protocol outlined by StemCell Technologies. […] Following the addition of CD34^+ cells isolated from human cord blood or peripheral blood (StemCell Technologies) at a final concentration of 5×10^2 cells per dish, the tubes were vortexed and allowed to stand for 5 minutes at room temperature. Next, the MethoCult mixtures were dispensed into 35 mm dishes (Corning Incorporated) through blunt end needles (StemCell Technologies) and 5 ml syringes (BD Biosciences) at a volume of 1.1 ml per dish. The medium was evenly distributed across the surface of each dish by gentle tilting and rotation. The dishes were then placed in a 100 mm culture dish (Grenier Bio-One) containing additional 35 mm dishes with sterile water to maintain humidity. The culture dish was then placed at 37° C. in a humidified incubator containing 5% CO2 for 13 days. The number of myeloid and erythroid derived colonies in both the treated and control dishes were counted and compared.

Chain of RSK3 (Q15349 whole entry): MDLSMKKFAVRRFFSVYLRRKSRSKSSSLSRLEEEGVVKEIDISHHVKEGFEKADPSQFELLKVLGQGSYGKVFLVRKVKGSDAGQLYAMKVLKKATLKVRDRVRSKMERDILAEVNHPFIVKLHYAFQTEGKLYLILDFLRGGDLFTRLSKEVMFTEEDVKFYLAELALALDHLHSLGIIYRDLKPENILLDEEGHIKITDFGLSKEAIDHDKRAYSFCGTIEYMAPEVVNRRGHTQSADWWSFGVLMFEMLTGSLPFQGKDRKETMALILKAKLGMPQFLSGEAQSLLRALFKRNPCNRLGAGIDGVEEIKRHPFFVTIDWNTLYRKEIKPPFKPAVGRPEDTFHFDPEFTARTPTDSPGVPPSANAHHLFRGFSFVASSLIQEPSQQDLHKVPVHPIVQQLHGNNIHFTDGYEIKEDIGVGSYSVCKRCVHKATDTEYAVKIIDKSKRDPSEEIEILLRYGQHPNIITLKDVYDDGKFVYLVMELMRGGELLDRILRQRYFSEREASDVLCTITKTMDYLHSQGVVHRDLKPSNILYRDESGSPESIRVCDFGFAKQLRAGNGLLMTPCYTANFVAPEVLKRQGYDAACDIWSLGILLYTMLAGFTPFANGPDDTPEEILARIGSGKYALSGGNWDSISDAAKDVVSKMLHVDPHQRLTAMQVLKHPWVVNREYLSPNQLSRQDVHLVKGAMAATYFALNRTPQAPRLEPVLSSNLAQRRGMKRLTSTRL
Chain of RSK2 (P51812 whole entry): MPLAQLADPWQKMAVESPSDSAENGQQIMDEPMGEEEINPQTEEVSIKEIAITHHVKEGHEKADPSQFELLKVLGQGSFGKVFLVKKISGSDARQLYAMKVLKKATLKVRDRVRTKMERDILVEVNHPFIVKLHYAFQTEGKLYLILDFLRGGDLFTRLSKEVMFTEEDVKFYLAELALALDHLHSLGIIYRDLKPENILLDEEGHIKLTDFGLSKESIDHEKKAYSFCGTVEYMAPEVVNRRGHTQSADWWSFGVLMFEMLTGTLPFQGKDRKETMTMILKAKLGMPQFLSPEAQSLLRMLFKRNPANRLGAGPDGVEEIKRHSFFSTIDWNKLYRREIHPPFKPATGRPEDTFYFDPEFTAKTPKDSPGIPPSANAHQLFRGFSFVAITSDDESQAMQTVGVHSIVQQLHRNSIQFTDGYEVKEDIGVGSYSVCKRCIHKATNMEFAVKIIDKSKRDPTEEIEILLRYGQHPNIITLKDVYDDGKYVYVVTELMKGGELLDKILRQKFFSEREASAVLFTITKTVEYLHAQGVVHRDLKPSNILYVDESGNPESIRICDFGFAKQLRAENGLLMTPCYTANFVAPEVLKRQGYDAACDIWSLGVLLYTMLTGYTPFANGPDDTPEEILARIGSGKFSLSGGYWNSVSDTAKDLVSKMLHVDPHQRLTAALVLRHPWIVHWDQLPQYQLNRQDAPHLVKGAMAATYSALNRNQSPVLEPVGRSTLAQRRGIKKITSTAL
Chain of RSK4 (Q9UK32 whole entry): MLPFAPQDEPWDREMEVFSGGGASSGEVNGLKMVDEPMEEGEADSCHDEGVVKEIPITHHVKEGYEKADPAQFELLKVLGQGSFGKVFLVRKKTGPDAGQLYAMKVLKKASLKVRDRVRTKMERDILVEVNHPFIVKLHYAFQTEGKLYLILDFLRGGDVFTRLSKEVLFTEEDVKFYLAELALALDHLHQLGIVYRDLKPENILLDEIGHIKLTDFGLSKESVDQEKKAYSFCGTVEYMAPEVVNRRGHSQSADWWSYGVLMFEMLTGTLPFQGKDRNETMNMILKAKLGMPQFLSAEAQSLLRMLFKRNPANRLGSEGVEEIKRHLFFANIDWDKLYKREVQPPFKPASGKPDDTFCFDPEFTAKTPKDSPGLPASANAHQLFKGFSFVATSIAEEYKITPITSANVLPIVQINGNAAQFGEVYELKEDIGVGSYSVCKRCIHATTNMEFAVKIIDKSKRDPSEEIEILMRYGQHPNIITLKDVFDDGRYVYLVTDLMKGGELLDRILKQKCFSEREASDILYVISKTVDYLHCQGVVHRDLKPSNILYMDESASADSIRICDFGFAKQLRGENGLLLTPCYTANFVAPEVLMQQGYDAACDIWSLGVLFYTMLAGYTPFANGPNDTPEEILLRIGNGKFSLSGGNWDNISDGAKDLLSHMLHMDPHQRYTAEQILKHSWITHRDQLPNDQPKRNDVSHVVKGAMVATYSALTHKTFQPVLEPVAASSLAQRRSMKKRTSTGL

A word on the IC50: it is the concentration needed to halve the response being measured. In the case of `C[C@@H]1CNC(=O)c2cc3ccc(C(=O)Nc4cnn(Cc5ccc(N)cc5)c4)nc3n21` [Compound 18, (R)—N-(1-(4-aminobenzyl)-1H-pyrazol-4-yl)-9-methyl-6-oxo-6,7,8,9-tetrahydropyrido[3′,2′:4,5]pyrrolo[1,2-a]pyrazine-2-carboxamide], the IC50 came to 0.3 nM in series [1], 2 nM in series [2], 1.7 nM in series [6] and 12 nM in series [9]. Moreover, the “levels of HLA-DRA mRNA” value in [3] is recorded as “elevated”. Besides, the “mRNA expression of CIITA” value in series [4] is on record as “little effect”. Also, the “loss of P—YB-1” value is “dose dependent loss” in series [5] (MDA-MB-231, 0.01, 0.1, 1, or 10 uM, 24 hrs) and “dose dependent loss” in [5] (MDA-MB-231, 0.01-1 uM, 96 hrs). The pH in series [7] (20 mg/ml solution, DMSO diluted in DMEM) turned out to be 9. Also, the “20 mg/ml Solubility” value in series [7] was “Soluble”. In addition, the CD274 result in series [8] is “inhibited”. Further, the “levels of CD274” value in series [10] was “reduced”.

In the case of `C[C@@H]1CNC(=O)c2cc3ccc(C(=O)Nc4cnn(Cc5ccc(F)cc5F)c4)nc3n21` [Compound 23, (R)—N-(1-(2,4-difluorobenzyl)-1H-pyrazol-4-yl)-9-methyl-6-oxo-6,7,8,9-tetrahydropyrido[3′,2′:4,5]pyrrolo[1,2-a]pyrazine-2-carboxamide], the IC50 lay within 1100 to 19800 nM in series [11] and 1100 to 15000 nM in series [12]. Also, the “20 mg/ml Solubility” value in series [7] was “Precipitate”.

Turning to `C[C@@H]1CNC(=O)c2cc3ccc(NC(=O)c4cnn(Cc5ccccc5)c4)nc3n21` [Compound 15, (R)-1-benzyl-N-(9-methyl-6-oxo-6,7,8,9-tetrahydropyrido[3′,2′:4,5]pyrrolo[1,2-a]pyrazin-2-yl)-1H-pyrazole-4-carboxamide], the IC50 in [1] stood at 8 nM; in series [2], 23.6 nM; in series [6], 6 nM; in series [9], 94 nM. The viability at 13 days, […] in series [13] was 100%.

The values are drawn from US9771366B2, “Substituted tetrahydropyrido[3′,2′:4,5]pyrrolo[1,2-a]pyrazine-2-carboxamides as RSK inhibitors” (Phoenix Molecular Designs, priority 2016, dated 2017).
